Measurements published in PubChem BioAssay AID1963963 (Molecular Pharmacology Branch, DTP, NCI, 2024).
Values joined by “and” are separate entries in the source; they are usually repeats but may differ in a detail not shown here. Identical values can stand only once.

System: 958667-338-R-J2-PDC tumor spheroids viability
Assay: Anticancer human tumor 958667-338-R-J2-PDC patient-derived colon adenocarcinoma cell line growth inhibition [PI3K]
Details: spheroids with HUVEC and MSC; for viability, T/C: stronger effect = lower value
Excerpt: Combinatorial screen of targeted agents with the PI3K inhibitors inavolisib, alpelisib, duvelisib, and copanlisib in multi-cell type tumor spheroids
A high-throughput screen of multi-cell type tumor spheroids was designed to identify active combinations of targeted small molecules and PI3K pathway inhibitors. Complex spheroids include a stromal component modeled by human endothelial cells (HUVEC) and fibroblasts modeled by human mesenchymal stem cells (MSCs). The concentration ranges selected for each drug and investigational agent were based upon clinically achievable concentrations if the clinical Cmax of the agent was known.
Compounds. The drugs and investigational agents: inavolisib (NSC800729), alpelisib (NSC765974), duvelisib (NSC772469), copanlisib (NSC816437), ipatasertib (NSC767898), afuresertib (NSC778305), talazoparib (NSC767125), sapanisertib (NSC764658), selumetinib (NSC741078), tovorafenib (DAY101, NSC766906), vemurafenib (NSC761431), ravoxertinib (NSC781343), sotorasib (NSC818433), MRTX1133 (NSC 836407), abemaciclib (NSC 768073), palbociclib (NSC758247), venetoclax (NSC 766270), SY5609 (NSC837396), enzalutamide (NSC755605), and darolutamide (NSC825331), were obtained from the National Cancer Institute (NCI) Developmental Therapeutics Program Chemical Repository. The FDA-approved anticancer drug set is available from the NCI Developmental Therapeutics Program. […] The stock solutions were prepared in dimethyl sulfoxide (DMSO, Sigma-Aldrich, St. Louis, MO, cat. D2650) at 800-fold the tested concentration and stored at -70 degrees C prior to their use. All drugs and investigational agents were tested over a range starting from a high concentration at or near the clinical Cmax and decreasing in half-log increments. If the clinical Cmax for an agent had not been determined, the highest concentration tested was 10 microM.
Cell Culture. All cells were maintained in an incubator at 37 degrees C and 5% CO2 with 95% humidity. The PDC lines were cultured according to standard operating procedures established by the NCI PDMR (https://pdmr.cancer.gov/sops/default.htm). All PDCs were thawed and cultured in Matrigel-coated flasks prepared with a working solution of 1X Ham's F-12 nutrient mix, without supplementation (Invitrogen, Waltham, MA, cat. 11765054), 100 U/mL penicillin-streptomycin (Invitrogen, cat. 15140122), and 2.5% Matrigel (Corning Inc., Corning, NY, cat. 354248) for the first three passages. The 354836-022-R-J1-PDC, 475296-252-R-J1-PDC, and 997726-040-R-J2-PDC lines were cultured in 6A media, which includes advanced DMEM/F-12 (Thermo Fisher Scientific, cat. 12634028), 10 mM HEPES (Thermo Fisher Scientific, cat. 15630080), 1X GlutaMAX supplement (Thermo Fisher Scientific, cat. 35050061), 0.1 mg/mL primocin (InvivoGen, San Diego, CA, cat. ant-pm-2), 10% defined fetal bovine serum, heat inactivated (HyClone Laboratories Inc., Logan, UT, cat. SH30070.03HI), 50% L-WRN conditioned media (ATCC, cat. CRL-3276), 1.25 mM N-Acetyl-L-cysteine (Sigma-Aldrich, cat. A9165), 10 mM nicotinamide (Sigma-Aldrich, cat. N0636), 1X B-27 supplement (Thermo Fisher Scientific, cat. 17504044), 1X N-2 supplement (Thermo Fisher Scientific, cat. 17502048), and 10 microM Y-27632 dihydrochloride (Tocris Bioscience, Bristol, United Kingdom, cat. 1254). The 624824-186-R-J2-PDC line was cultured in 6C/Colon 1B media, which includes all 6A media components plus 50 ng/mL human EGF recombinant protein (Thermo Fisher Scientific, cat. PHG0311). […]
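Note: spheroids exposed to compounds for seven days before readout.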

With `C#Cc1c(F)ccc2cc(O)cc(-c3ncc4c(N5CC6CCC(C5)N6)nc(OCC56CCCN5CC(F)C6)nc4c3F)c12` (configuration not stated) the viability, T/C (compound 0.0316 µM) was 98.5% [middle of 4 runs], the viability, T/C (compound 0.1 µM) was 103% [middle of 4 runs] and the viability, T/C (compound 0.316 µM) was 101% [middle of 4 runs]. The viability, T/C (compound 1 µM) was 97.3% [middle of 4 runs], the viability, T/C (compound 3.16 µM) was 86.7% [middle of 4 runs] and the viability, T/C (compound 10 µM) was 63.8% [middle of 4 runs]. It also gave an IC50 (curve of compound) of over 10 µM.
`C=CC(=O)N1CCN(c2nc(=O)n(-c3c(C)ccnc3C(C)C)c3nc(-c4c(O)cccc4F)c(F)cc23)C(C)C1` (configuration not stated) was tested, and the viability, T/C (compound 0.1 µM) was 108% [middle of 4 runs], the viability, T/C (compound 0.316 µM) was 103% [middle of 4 runs] and the viability, T/C (compound 1 µM) was 114% [middle of 4 runs]. The viability, T/C (compound 3.16 µM) was 113% [middle of 4 runs] and the IC50 (curve of compound) was over 10 µM.
In the case of `CC(=O)c1c(C)c2cnc(Nc3ccc(N4CCNCC4)cn3)nc2n(C2CCCC2)c1=O`, the viability, T/C (compound 0.000316 µM) is reported as 110% [middle of 4 runs], the viability, T/C (compound 0.00316 µM) is reported as 107% [middle of 4 runs] and the viability, T/C (compound 0.01 µM) is reported as 109% (2×) and 88% and 111%. The viability, T/C (compound 0.0316 µM) was 99.5% and 114% (2×) and 106%, the viability, T/C (compound 0.1 µM) was 93.8% [middle of 4 runs] and the IC50 (curve of compound) was over 0.1 µM.
For `CC(C)NCC(C(=O)N1CCN(c2ncnc3c2C(C)CC3O)CC1)c1ccc(Cl)cc1` (configuration not stated), the viability, T/C (compound 0.0316 µM) was 99.2% and 102% and 101%, the viability, T/C (compound 0.1 µM) was 92.6% and 114% and 87.9% and the viability, T/C (compound 0.316 µM) was 101% and 113% and 108%. For the same compound, the viability, T/C (compound 1 µM) was 78.6% and 73.4% and 101%, the viability, T/C (compound 3.16 µM) was 78.8% and 72.3% and 119% and the viability, T/C (compound 10 µM) was 72.2% and 69.7% and 80.9%. It also gave an IC50 (curve of compound) of over 10 µM.
In the case of `CC(C)n1nc(-c2ccc3oc(N)nc3c2)c2c(N)ncnc21`, the viability, T/C (compound 0.000316 µM) is reported as 93.8% [middle of 4 runs], the viability, T/C (compound 0.001 µM) is reported as 97.1% [middle of 4 runs] and the viability, T/C (compound 0.01 µM) is reported as 94.7% [middle of 4 runs]. The viability, T/C (compound 0.0316 µM) was 72.6% [middle of 4 runs], the viability, T/C (compound 0.1 µM) was 44.5% [middle of 4 runs] and the IC50 (curve of compound) was 80.6 nM [middle of 4 runs].
With `CC(Cn1ccc(-c2ccc(C#N)c(Cl)c2)n1)NC(=O)c1cc(C(C)O)[nH]n1` (configuration not stated) the viability, T/C (compound 0.0316 µM) was 105% [middle of 4 runs], the viability, T/C (compound 0.1 µM) was 92.6% [middle of 4 runs] and the viability, T/C (compound 0.316 µM) was 111% [middle of 4 runs]. For the same compound, the viability, T/C (compound 1 µM) was 104% [middle of 4 runs], the viability, T/C (compound 3.16 µM) was 107% [middle of 4 runs] and the viability, T/C (compound 10 µM) was 89.4% [middle of 4 runs]. The IC50 (curve of compound) was over 10 µM.
In the case of `CC(Nc1ccc2c(c1)OCCn1cc(N3C(=O)OCC3C(F)F)nc1-2)C(N)=O` (configuration not stated), the viability, T/C (compound 0.01 µM) is reported as 100% [middle of 7 runs], the viability, T/C (compound 0.0316 µM) is reported as 96.9% [middle of 7 runs] and the viability, T/C (compound 0.1 µM) is reported as 80.8% [middle of 7 runs]. The viability, T/C (compound 0.316 µM) was 70.7% [middle of 7 runs], the viability, T/C (compound 1 µM) was 64.9% [middle of 7 runs] and the IC50 (compound alone, run of 06/12/2023) was over 1 µM.
In the case of `CC(Nc1ncnc2nc[nH]c12)c1cc2cccc(Cl)c2c(=O)n1-c1ccccc1` (configuration not stated), the viability, T/C (compound 0.1 µM) is reported as 93.8% [middle of 8 runs], the viability, T/C (compound 1 µM) is reported as 90.8% [middle of 8 runs] and the viability, T/C (compound 10 µM) is reported as 92.9% [middle of 8 runs]. For the same compound, the IC50 (compound alone, run of 06/13/2023) was over 10 µM.
In the case of `CC1(C)CCC(CN2CCN(c3ccc(C(=O)NS(=O)(=O)c4ccc(NCC5CCOCC5)c([N+](=O)[O-])c4)c(Oc4cnc5[nH]ccc5c4)c3)CC2)=C(c2ccc(Cl)cc2)C1`, the viability, T/C (compound 0.316 µM) is reported as 106% [middle of 4 runs], the viability, T/C (compound 1 µM) is reported as 109% (2×) and 87% and 112% and the viability, T/C (compound 3.16 µM) is reported as 98.7% [middle of 4 runs]. For the same compound, the IC50 (curve of compound) was > 10 µM and 6.88 µM and 6.97 µM.
`CC1(C)CCC(Nc2ncc(C(F)(F)F)c(-c3c[nH]c4c(P(C)(C)=O)c(C#N)ccc34)n2)CN1` (configuration not stated) was tested, and the viability, T/C (compound 0.0316 µM) was 97.9% [middle of 4 runs], the viability, T/C (compound 1 µM) was 66.5% [middle of 4 runs] and the viability, T/C (compound 3.16 µM) was 64.5% [middle of 4 runs]. The viability, T/C (compound 10 µM) was 36.4% [middle of 4 runs] and the IC50 (curve of compound) was 5.09 µM [middle of 4 runs].
